Like-named read-outs stand apart in the source and are kept apart here.

Results on 20 compounds are retold here after US10040791B2, “Isoxazole derivative as mutant isocitrate dehydrogenase 1 inhibitor” (Daiichi Sankyo Company, Limited, priority 2014, dated 2018).

Assay [1] concerns HT1080 xenografted mice (IDH1R132C). The experiment in a line: 2-HG production inhibitory activity using HT1080 xenografted mice. It is filed as in vivo, mouse. The following applies: Mus musculus, HT-1080, po, 6 h, read-out: Test Example 5 Ratio (%). Here is the method: HT1080 xenografted mice having successfully engrafted tumors were given by oral gavage each compound at 75 mg/kg a total of three times twice a day. The compound was suspended in a vehicle solution at 7.5 mg/mL using a homogenizer. Then, the suspension was stored at −20° C., thawed immediately before the administration, and given to mice. A negative control group for the test was given a vehicle by oral gavage. The body weights of the mice were measured using an automatic balance for small animals. The dosing solution was administered at a dose of 10 mL/kg body weight.
6 hours after the final administration, each mouse was euthanized with carbon dioxide. A portion of a tumor was collected, and its weight was measured using an electronic balance. Then, the tumor was frozen on dry ice. To the frozen tumor, methanol was added in an amount of 14 times the tumor weight. The resulting tumor was homogenized with Beads shocker (Yasui Kikai Corp.) and then incubated for 15 minutes in a freezer at −20° C. After centrifugation at 15000 rpm at 4° C. for 15 minutes using a high-speed refrigerated microcentrifuge, 250 μL of methanol and 400 μL of ultrapure water were added to 150 μL of the obtained supernatant. The prepared samples were subjected to 2-HG measurement.

Assay [2] relates to HT-1080 cells expressing IDH1R132C. The assay is described as follows: 2-HG production inhibitory activity using HT1080 cell. The following applies: Homo sapiens. It is filed as cell-based, human. Here is the method:
Then, 100 μL of growth medium B was added to each well, further 25 μL of a solution of each compound diluted to a predetermined concentration with growth medium B was added to each well, and the cells were incubated at 37° C. for 2 days under 5% CO2. […] Then, 150 μL of ultrapure water was further added to each well, and the mixture was stirred by pipetting and stored at −20° C.
The preserved solutions were thawed at room temperature.

Assay [3] addresses IDH1R132C (Homo sapiens (Human), UniProt O75874, R132C). The assay is described as follows: Inhibitory activity against IDH1R132C enzyme (NADPH detection, WST-8). The following applies: 10 nM, residual NADPH detected with WST-8, read-out: Test Example 1 IDH1 R132C IC50. It is filed as biochemical. In general terms: Formazan colour is commonly taken as a measure of viable cells.
Where [4] appears, read: 2-HG production, HT1080 xenografted mice.
The mark [5] stands for this setting: HT-1080, 2-HG production, HT1080 cells, read-out: Test Example 3 IC50.

Chain of IDH1R132C (O75874 whole entry R132C): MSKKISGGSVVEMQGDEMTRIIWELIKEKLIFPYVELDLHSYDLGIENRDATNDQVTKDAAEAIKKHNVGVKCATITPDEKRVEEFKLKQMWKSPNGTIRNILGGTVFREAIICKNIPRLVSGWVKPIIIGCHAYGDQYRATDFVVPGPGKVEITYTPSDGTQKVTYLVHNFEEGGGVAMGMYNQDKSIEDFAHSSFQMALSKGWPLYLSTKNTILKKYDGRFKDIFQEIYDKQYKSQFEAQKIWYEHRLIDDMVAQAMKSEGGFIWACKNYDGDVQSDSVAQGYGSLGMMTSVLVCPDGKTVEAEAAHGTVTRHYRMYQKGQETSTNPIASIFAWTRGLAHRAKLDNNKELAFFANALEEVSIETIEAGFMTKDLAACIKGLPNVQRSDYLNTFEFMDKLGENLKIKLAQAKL

As a reminder, the IC50 is the point on the concentration scale where inhibition reaches its midpoint. For the compound `Cc1cn(C(=O)c2c(-c3c(Cl)cc(Cl)cc3Cl)noc2C2(C)CCC2)c2cccc(/C=C/C(=O)O)c12` [Example 10, (2E)-3-(3-Methyl-1-{[5-(1-methylcyclobutyl)-3-(2,4,6-trichlorophenyl)-1,2-oxazol-4-yl]carbonyl}-1H-indol-4-yl)prop-2-enoic acid], the response vs control in vivo at 75 mg/kg in assay [1] (setting [4]) is 27%. Besides, the IC50 in assay [2] (setting [5]) turned out to be 50 nM; in assay [3] it was 179 nM.
As for `COC1(c2onc(-c3c(Cl)cc(Cl)cc3Cl)c2C(=O)n2cc3c4c(cccc42)/C(=C/C(=O)O)CC3)CCC1` [Example 12, (2E)-[1-{[5-(1-Methoxycyclobutyl)-3-(2,4,6-trichlorophenyl)-1,2-oxazol-4-yl]carbonyl}-3,4-dihydrobenzo[cd]indol-5(1H)-ylidene]ethanoic acid], the response vs control in vivo at 75 mg/kg in assay [1] (setting [4]) was 7%. Also, the IC50 in assay [2] (setting [5]) was found to be 24 nM; in assay [3], 144 nM.
For `CC(C)(F)c1onc(-c2c(Cl)cc(Cl)cc2Cl)c1C(=O)n1cc2c3c(cccc31)/C(=C/C(=O)O)CC2` [Example 13, (2E)-[1-{[5-(2-Fluoropropan-2-yl)-3-(2,4,6-trichlorophenyl)-1,2-oxazol-4-yl]carbonyl}-3,4-dihydrobenzop[cd]indol-5(1H)-ylidene]ethanoic acid] the same measures were 28%, 51 nM and 148 nM.
As for `CC(C)(F)c1onc(-c2c(F)cc(Cl)cc2Cl)c1C(=O)n1cc2c3c(cccc31)/C(=C/C(=O)O)CC2` [Example 16, (2E)-[1-{[3-(2,4-Dichloro-6-fluorophenyl)-5-(2-fluoropropan-2-yl)-1,2-oxazol-4-yl]carbonyl}-3,4-dihydrobenzo[cd]indol-5(1H)-ylidene]ethanoic acid], the response vs control in vivo at 75 mg/kg in assay [1] (setting [4]) was 32%. The concentration for half-maximal inhibition (IC50) was found to be 89 nM in assay [2] (setting [5]) and 107 nM in assay [3].
Regarding `CC(C)(F)c1onc(-c2c(Cl)cc(Cl)cc2Cl)c1C(=O)n1ccc2c3c(ccc21)CCC(C(=O)O)C3` (stereo not drawn) [Example 18, 3-{[5-(2-Fluoropropan-2-yl)-3-(2,4,6-trichlorophenyl)-1,2-oxazol-4-yl]carbonyl}-6,7,8,9-tetrahydro-3H-Benzo[e]indole-8-carboxylic acid], the response vs control in vivo at 75 mg/kg in assay [1] (setting [4]) came to 56%. Further, the IC50 in assay [2] (setting [5]) was found to be 136 nM; in assay [3], 162 nM.
Consider `CC1(c2onc(-c3c(Cl)cc(Cl)cc3Cl)c2C(=O)n2cc3c4c(cccc42)/C(=C/C(=O)O)CC3)CC(F)(F)C1` [Example 19], for which the response vs control in vivo at 75 mg/kg in assay [1] (setting [4]) is 79%. Further, the IC50 is 64 nM in assay [2] (setting [5]) and 169 nM in assay [3].
As for `Cc1cn(C(=O)c2c(-c3c(Cl)cc(Cl)cc3Cl)noc2C(C)(C)F)c2cccc(/C=C/C(=O)O)c12` [Example 21, (2E)-3-(1-{[5-(2-Fluoropropan-2-yl)-3-(2,4,6-trichlorophenyl)-1,2-oxazol-4-yl]carbonyl}-3-methyl-1H-indol-4-yl)prop-2-enoic acid], the response vs control in vivo at 75 mg/kg in assay [1] worked out at 14%. The IC50 in assay [2] (HT-1080, read-out: Test Example 3 IC50 (nM)) was determined as 56 nM; in assay [3], 95 nM.
With `CC(C)(C)c1onc(-c2c(Cl)cc(Cl)cc2Cl)c1C(=O)n1ccc2c(/C=C/C(=O)O)cccc21` [Example 22, (2E)-3-(1-{[5-(tert-Butyl)-3-(2,4,6-trichlorophenyl)-1,2-oxazol-4-yl]carbonyl}-1H-indol-4-yl)prop-2-enoic acid], the response vs control in vivo at 75 mg/kg in assay [1] (setting [4]) came to 13%. For the same compound, the IC50 in assay [2] (setting [5]) amounted to 109 nM; in assay [3], 189 nM.
For `Cc1cn(C(=O)c2c(-c3c(Cl)cc(Cl)cc3Cl)noc2C(C)C)c2cccc(/C=C/C(=O)O)c12` [Example 29, (2E)-3-(1-{[5-(Propan-2-yl)-3-(2,4,6-trichlorophenyl)-1,2-oxazol-4-yl]carbonyl}-3-methyl-1H-indol-4-yl)prop-2-enoic acid] the same measures were 39%, 94 nM and 102 nM.
Regarding `Cc1cn(C(=O)c2c(-c3c(Cl)cc(Cl)cc3Cl)noc2C(C)(C)C)c2cccc(/C=C/C(=O)O)c12` [Example 33, (2E)-3-(1-{[5-(tert-Butyl)-3-(2,4,6-trichlorophenyl)-1,2-oxazol-4-yl]carbonyl}-3-methyl-1H-indol-4-yl)prop-2-enoic acid], in assay [1] (setting [4]), the response vs control in vivo at 75 mg/kg came to 15%. The values for the IC50 in assay [2] (setting [5]) and in assay [3] were 43 nM and 193 nM, respectively.
For the compound `CC(C)(C)c1noc(-c2c(Cl)cc(Cl)cc2Cl)c1C(=O)n1ccc2c(/C=C/C(=O)O)cccc21` [Example 34, (2E)-3-(1-{[3-(tert-Butyl)-5-(2,4,6-trichlorophenyl)-1,2-oxazol-4-yl]carbonyl}-1H-indol-4-yl)prop-2-enoic acid], the response vs control in vivo at 75 mg/kg in assay [1] (setting [4]) came out at 55%. Moreover, the half-inhibitory concentration (IC50) in assay [2] (setting [5]) came out at 209 nM; in assay [3] it was 364 nM.
With `CC(C)(C)c1onc(-c2c(F)cc(Cl)cc2Cl)c1C(=O)n1ccc2c(/C=C/C(=O)O)cccc21` [Example 35, (2E)-3-(1-{[5-(tert-Butyl)-3-(2,4-dichloro-6-fluorophenyl)-1,2-oxazol-4-yl]carbonyl}-1H-indol-4-yl)prop-2-enoic acid], the response vs control in vivo at 75 mg/kg in assay [1] (setting [4]) was 64%. Further, the IC50 in assay [2] (setting [5]) is 244 nM; in assay [3] it was 161 nM.
With `CC(C)(F)c1onc(-c2c(Cl)cc(Cl)cc2Cl)c1C(=O)n1ccc2c(/C=C/C(=O)O)cccc21` [Example 36, (2E)-3-(1-{[5-(2-Fluoropropan-2-yl)-3-(2,4,6-trichlorophenyl)-1,2-oxazol-4-yl]carbonyl}-1H-indol-4-yl)prop-2-enoic acid], in assay [1] (setting [4]), the response vs control in vivo at 75 mg/kg is 43%. For the same compound, the IC50 was 170 nM in assay [2] (setting [5]) and 109 nM in assay [3].
As for `CC1(c2onc(-c3c(Cl)cc(Cl)cc3Cl)c2C(=O)n2ccc3c(/C=C/C(=O)O)cccc32)CC1` [Example 37, (2E)-3-(1-{[5-(1-Methylcyclopropyl)-3-(2,4,6-trichlorophenyl)-1,2-oxazol-4-yl]carbonyl}-1H-indol-4-yl)prop-2-enoic acid], the response vs control in vivo at 75 mg/kg in assay [1] (setting [4]) came to 35%. The IC50 in assay [2] (setting [5]) amounted to 149 nM; in assay [3] it was 117 nM.
On to `Cc1cc(Cl)c(-c2noc(C(C)(C)C)c2C(=O)n2ccc3c(/C=C/C(=O)O)cccc32)c(Cl)c1` [Example 38, (2E)-3-(1-{[5-(tert-Butyl)-3-(2,6-dichloro-4-methylphenyl)-1,2-oxazol-4-yl]carbonyl}-1H-indol-4-yl)prop-2-enoic acid], for which the response vs control in vivo at 75 mg/kg in assay [1] (setting [4]) was found to be 61%. For the same compound, the IC50 in assay [2] (setting [5]) amounted to 200 nM; in assay [3], 234 nM.
For `CC(C)(C)c1onc(-c2c(Cl)cc(Cl)cc2Cl)c1C(=O)n1cc(F)c2c(/C=C/C(=O)O)cccc21` [Example 40, (2E)-3-(1-{[5-(tert-Butyl)-3-(2,4,6-trichlorophenyl)-1,2-oxazol-4-yl]carbonyl}-3-fluoro-1H-indol-4-yl)prop-2-enoic acid] the same measures were 18%, 57 nM and 159 nM.
In the case of `COCC(C)(C)c1onc(-c2c(Cl)cc(Cl)cc2Cl)c1C(=O)n1ccc2c(/C=C/C(=O)O)cccc21` [Example 42, (2E)-3-(1-{[5-(1-Methoxy-2-methylpropan-2-yl)-3-(2,4,6-trichlorophenyl)-1,2-oxazol-4-yl]carbonyl}-1H-indol-4-yl)prop-2-enoic acid], in assay [1] (setting [4]), the response vs control in vivo at 75 mg/kg was determined as 84%. In addition, the IC50 amounted to 178 nM in assay [2] (setting [5]) and 217 nM in assay [3].
On to `Cc1cn(C(=O)c2c(-c3c(Cl)cc(Cl)cc3Cl)noc2C2(C)CC2)c2cccc(/C=C/C(=O)O)c12` [Example 43, (2E)-3-(3-Methyl-1-{[5-(1-methylcyclopropyl)-3-(2,4,6-trichlorophenyl)-1,2-oxazol-4-yl]carbonyl}-1H-indol-4-yl)prop-2-enoic acid], for which, in assay [1] (setting [4]), the response vs control in vivo at 75 mg/kg is 54%. In addition, the IC50 in assay [2] (setting [5]) amounted to 63 nM; in assay [3], 139 nM.
Consider `COC1(c2onc(-c3c(Cl)cc(Cl)cc3Cl)c2C(=O)n2ccc3c(/C=C/C(=O)O)cccc32)CC1` [Example 44, (2E)-3-(1-{[5-(1-Methoxycyclopropyl)-3-(2,4,6-trichlorophenyl)-1,2-oxazol-4-yl]carbonyl}-1H-indol-4-yl)prop-2-enoic acid], for which the response vs control in vivo at 75 mg/kg in assay [1] (setting [4]) was found to be 72%. The IC50 is 194 nM in assay [2] (setting [5]) and 189 nM in assay [3].
`CC(C)(F)c1onc(-c2c(F)cc(Cl)cc2Cl)c1C(=O)n1ccc2c(/C=C/C(=O)O)cccc21` [Example 46, (2E)-3-(1-{[3-(2,4-Dichloro-6-fluorophenyl)-5-(2-fluoropropan-2-yl)-1,2-oxazol-4-yl]carbonyl}-1H-indol-4-yl)prop-2-enoic acid]: in assay [1] (setting [4]), the response vs control in vivo at 75 mg/kg came to 69%. For the same compound, the IC50 amounted to 459 nM in assay [2] (setting [5]) and 197 nM in assay [3].
